Test results taken from US7192746B2, “α-Isomaltosyltransferase, process for producing the same and use thereof” (Kabushiki Kaisha Hayashibara Seibutsu Kagaku Kenkyujo, priority 2000, dated 2007).

Tests used:
Assay type in all cases: biochemical
[1] = system: α-isomaltosyl-transferring enzyme from Arthrobacter ramosus S1; assay: Action on saccharides (substrates, TLC); design: key: −: there was found no substrate change before and after the enzymatic reaction; +: there were found both the reduction of substrate and the formation of cyclotetrasaccharide after the enzymatic reaction; conditions: 2 units/g substrate, 2% (w/v) substrate, 30° C., pH 6.0, 24 hours
Procedure, shortened: (§1)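 TLC detection used sulfuric acid-methanol coloration for all sugars and diphenylamine-aniline for reducing ones, after development in n-butanol/pyridine/water (6:4:1). Reactions contained 2% (w/v) substrate and 2 units/g substrate of purified enzyme, incubated 24 hours at 30° C., pH 6.0.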

[2] = system: α-isomaltosyl-transferring enzyme from Arthrobacter globiformis A19; assay: Action on saccharides (substrates, TLC); design: key: −: there was found no substrate change before and after the enzymatic reaction; +: there were found both the reduction of substrate and the formation of cyclotetrasaccharide after the enzymatic reaction; conditions: partially purified enzyme, 2 units/g substrate, 2% (w/v) substrate, 30° C., pH 6.0, 24 hours
Procedure, shortened: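 Substrates 2% (w/v), enzyme 2 units/g substrate, pH 6.0, 30° C., 24 h. Read-out: silica TLC, n-butanol:pyridine:water 6:4:1; sulfuric acid-methanol (total sugar) and diphenylamine-aniline (reducing sugar) staining, pre- vs post-reaction.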

[3] = system: α-isomaltosyl-transferring enzyme from Bacillus globisporus N75; assay: Action on saccharides (substrates, TLC); design: key: −: there was found no substrate change before and after the enzymatic reaction; +: there were found both the reduction of substrate and the formation of cyclotetrasaccharide after the enzymatic reaction; conditions: 2 units/g substrate, 2% (w/v) substrate, 30° C., pH 6.0, 24 hours
Procedure, shortened: as §1

[4] = system: α-isomaltosyl-transferring enzyme from Bacillus globisporus C9; assay: Action on saccharides (substrates, TLC); design: key: −: there was found no substrate change before and after the enzymatic reaction; +: there were found both the reduction of substrate and the formation of cyclotetrasaccharide after the enzymatic reaction; conditions: 2 units/g substrate, 2% (w/v) substrate, 30° C., pH 6.0, 24 hours
Procedure, shortened: as §1

[5] = system: α-isomaltosyl-transferring enzyme from Bacillus globisporus C11; assay: Action on saccharides (substrates, TLC); design: key: −: there was found no substrate change before and after the enzymatic reaction; +: there were found both the reduction of substrate and the formation of cyclotetrasaccharide after the enzymatic reaction; conditions: 2 units/g substrate, 2% (w/v) substrate, 30° C., pH 6.0, 24 hours
Procedure, shortened: as §1

[6] = system: α-isomaltosyl-transferring enzyme from Arthrobacter ramosus S1; assay: Specificity to transferring acceptor; design: key: −: no saccharide transferred product was formed; ±: a saccharide-transferred product formed in an amount of less than one percent to the total sugars; +: a saccharide-transferred product was formed in an amount of over one percent but below 10% to the total sugars; ++: a saccharide-transferred product was formed in an amount of over 10% to the total sugars; conditions: panose as saccharide donor, 10 units/g substrate, 3.2% (w/v), 30° C., pH 6.0, 24 hours
Procedure, shortened: (§2)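 Scoring is presence or absence of a transfer product, detected by HPLC for tri- or larger saccharides and by GLC for smaller ones. Reactions: 3.2% (w/v) saccharide with panose as donor in equal amount, 10 units/g substrate of purified or partially purified enzyme, pH 6.0, 30 °C, 24 h.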

[7] = system: α-isomaltosyl-transferring enzyme from Arthrobacter globiformis A19; assay: Specificity to transferring acceptor; design: key: −: no saccharide transferred product was formed; ±: a saccharide-transferred product formed in an amount of less than one percent to the total sugars; +: a saccharide-transferred product was formed in an amount of over one percent but below 10% to the total sugars; ++: a saccharide-transferred product was formed in an amount of over 10% to the total sugars; conditions: partially purified enzyme, panose as saccharide donor, 10 units/g substrate, 3.2% (w/v), 30° C., pH 6.0, 24 hours
Procedure, shortened: as §2

[8] = system: α-isomaltosyl-transferring enzyme from Bacillus globisporus N75; assay: Specificity to transferring acceptor; design: key: −: no saccharide transferred product was formed; ±: a saccharide-transferred product formed in an amount of less than one percent to the total sugars; +: a saccharide-transferred product was formed in an amount of over one percent but below 10% to the total sugars; ++: a saccharide-transferred product was formed in an amount of over 10% to the total sugars; conditions: panose as saccharide donor, 10 units/g substrate, 3.2% (w/v), 30° C., pH 6.0, 24 hours
Procedure, shortened: as §2

[9] = system: α-isomaltosyl-transferring enzyme from Bacillus globisporus C9; assay: Specificity to transferring acceptor; design: key: −: no saccharide transferred product was formed; ±: a saccharide-transferred product formed in an amount of less than one percent to the total sugars; +: a saccharide-transferred product was formed in an amount of over one percent but below 10% to the total sugars; ++: a saccharide-transferred product was formed in an amount of over 10% to the total sugars; conditions: panose as saccharide donor, 10 units/g substrate, 3.2% (w/v), 30° C., pH 6.0, 24 hours
Procedure, shortened: as §2

[10] = system: α-isomaltosyl-transferring enzyme from Bacillus globisporus C11; assay: Specificity to transferring acceptor; design: key: −: no saccharide transferred product was formed; ±: a saccharide-transferred product formed in an amount of less than one percent to the total sugars; +: a saccharide-transferred product was formed in an amount of over one percent but below 10% to the total sugars; ++: a saccharide-transferred product was formed in an amount of over 10% to the total sugars; conditions: panose as saccharide donor, 10 units/g substrate, 3.2% (w/v), 30° C., pH 6.0, 24 hours
Procedure, shortened: as §2

Row | Structure (SMILES) | Enzymatic action for forming cyclotetrasaccharide, Enzyme of Strain S1 [1] | Enzymatic action for forming cyclotetrasaccharide, Enzyme of Strain A19 [2] | Enzymatic action for forming cyclotetrasaccharide, Enzyme of Strain N75 [3] | Enzymatic action for forming cyclotetrasaccharide, Enzyme of Strain C9 [4] | Enzymatic action for forming cyclotetrasaccharide, Enzyme of Strain C11 [5] | Product of transferring reaction, Enzyme of Strain S1 [6] | Product of transferring reaction, Enzyme of Stain A19 [7] | Product of transferring reaction, Enzyme of Strain N75 [8] | Product of transferring reaction, Enzyme of Strain C9 [9] | Product of transferring reaction, Enzyme of Strain C11 [10]
1 | OC[C@@H](O)[C@@H](O[C@H]1O[C@H](CO)[C@@H](O[C@H]2O[C@H](CO)[C@@H](O)[C@H](O)[C@H]2O)[C@H](O)[C@H]1O)[C@H](O)[C@@H](O)CO [Maltotriitol, maltotriitol] | − | − | − | − | − | + (a saccharide-transferred product was formed in an amount of over one percent but below 10% to the total sugars) | + (a saccharide-transferred product was formed in an amount of over one percent but below 10% to the total sugars) | + (a saccharide-transferred product was formed in an amount of over one percent but below 10% to the total sugars) | + (a saccharide-transferred product was formed in an amount of over one percent but below 10% to the total sugars) | + (a saccharide-transferred product was formed in an amount of over one percent but below 10% to the total sugars)
2 | OC[C@H]1O[C@H](O[C@H]2[C@H](O)[C@@H](CO)OC(O)[C@@H]2O)[C@H](O)[C@@H](O)[C@@H]1O (stereo partly drawn) [Nigerose, nigerose] | − | − | − | − | − | + (a saccharide-transferred product was formed in an amount of over one percent but below 10% to the total sugars) | + (a saccharide-transferred product was formed in an amount of over one percent but below 10% to the total sugars) | + (a saccharide-transferred product was formed in an amount of over one percent but below 10% to the total sugars) | + (a saccharide-transferred product was formed in an amount of over one percent but below 10% to the total sugars) | + (a saccharide-transferred product was formed in an amount of over one percent but below 10% to the total sugars)
3 | OC[C@H]1O[C@@](CO)(O[C@H]2O[C@H](CO)[C@@H](O)[C@H](O)[C@H]2O)[C@@H](O)[C@@H]1O [Sucrose, sucrose] | − | − | − | − | − | + (a saccharide-transferred product was formed in an amount of over one percent but below 10% to the total sugars) | + (a saccharide-transferred product was formed in an amount of over one percent but below 10% to the total sugars) | + (a saccharide-transferred product was formed in an amount of over one percent but below 10% to the total sugars) | + (a saccharide-transferred product was formed in an amount of over one percent but below 10% to the total sugars) | + (a saccharide-transferred product was formed in an amount of over one percent but below 10% to the total sugars)
4 | OC[C@H]1O[C@H](O[C@H]2O[C@H](CO)[C@@H](O)[C@H](O)[C@H]2O)[C@H](O)[C@@H](O)[C@@H]1O [α,α-Trehalose, α,α-trehalose] | − | − | − | − | − | + (a saccharide-transferred product was formed in an amount of over one percent but below 10% to the total sugars) | + (a saccharide-transferred product was formed in an amount of over one percent but below 10% to the total sugars) | + (a saccharide-transferred product was formed in an amount of over one percent but below 10% to the total sugars) | + (a saccharide-transferred product was formed in an amount of over one percent but below 10% to the total sugars) | + (a saccharide-transferred product was formed in an amount of over one percent but below 10% to the total sugars)
5 | OC[C@H]1O[C@@H](O[C@H]2O[C@H](CO)[C@@H](O)[C@H](O)[C@H]2O)[C@H](O)[C@@H](O)[C@@H]1O [α,β-trehalose] | − | − | − | − | − | ++ (a saccharide-transferred product was formed in an amount of over 10% to the total sugars) | ++ (a saccharide-transferred product was formed in an amount of over 10% to the total sugars) | ++ (a saccharide-transferred product was formed in an amount of over 10% to the total sugars) | ++ (a saccharide-transferred product was formed in an amount of over 10% to the total sugars) | ++ (a saccharide-transferred product was formed in an amount of over 10% to the total sugars)
6 | OC[C@H]1O[C@@H]2O[C@H]3[C@H](O)[C@@H](O)[C@@H](O[C@H]4[C@H](O)[C@@H](O)[C@@H](O[C@H]5[C@H](O)[C@@H](O)[C@@H](O[C@H]6[C@H](O)[C@@H](O)[C@@H](O[C@H]7[C@H](O)[C@@H](O)[C@@H](O[C@H]1[C@H](O)[C@H]2O)O[C@@H]7CO)O[C@@H]6CO)O[C@@H]5CO)O[C@@H]4CO)O[C@@H]3CO [α-Cyclodextrin, α-cyclodextrin] | − | − | − | − | − | − | − | − | − | −
